pIC50: −log10 of the molar value.
Columns and labels:
[1] = molecular target: T1, full-length beta-Catenin (Uniprot ID P35222) (Homo sapiens, UniProt P35222); test: Fluorescence polarization IC50 (beta-catenin / 5FAM-TCF4 10-53 competition); type: binding; conditions: fluorescence polarization; read-out: beta-Catenin FP IC50
T1 construct: 10 nM full-length beta-Catenin (Uniprot ID P35222)
T1 sequence (P35222 1-781): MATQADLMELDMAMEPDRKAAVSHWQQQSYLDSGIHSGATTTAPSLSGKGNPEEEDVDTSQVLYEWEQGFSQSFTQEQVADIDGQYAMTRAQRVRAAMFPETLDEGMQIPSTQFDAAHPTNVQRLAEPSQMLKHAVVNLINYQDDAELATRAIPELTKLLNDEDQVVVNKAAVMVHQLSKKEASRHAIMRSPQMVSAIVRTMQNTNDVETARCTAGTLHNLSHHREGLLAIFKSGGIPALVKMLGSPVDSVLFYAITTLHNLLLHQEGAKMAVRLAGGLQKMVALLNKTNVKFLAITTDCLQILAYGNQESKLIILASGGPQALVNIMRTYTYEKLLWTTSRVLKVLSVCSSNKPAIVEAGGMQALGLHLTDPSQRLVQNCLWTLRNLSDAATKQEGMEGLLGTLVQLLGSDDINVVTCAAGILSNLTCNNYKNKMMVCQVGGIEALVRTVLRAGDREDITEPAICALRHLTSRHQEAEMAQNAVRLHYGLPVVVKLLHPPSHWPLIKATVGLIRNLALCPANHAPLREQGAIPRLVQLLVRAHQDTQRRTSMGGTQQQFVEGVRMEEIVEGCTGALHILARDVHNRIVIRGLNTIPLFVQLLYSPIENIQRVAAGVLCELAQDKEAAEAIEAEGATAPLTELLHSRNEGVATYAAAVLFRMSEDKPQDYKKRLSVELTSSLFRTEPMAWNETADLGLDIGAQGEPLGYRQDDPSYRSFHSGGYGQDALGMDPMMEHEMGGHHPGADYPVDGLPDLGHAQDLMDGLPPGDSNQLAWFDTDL

[2] = molecular target: T2, beta-catenin/TCF4 engagement (Homo sapiens, UniProt P35222); test: Nano-BRET target engagement assay (B-cat-Halo & TCF4-Luc in HEK293 cells); type: cell-based; conditions: absolute IC50; read-out: NanoBRET Abs IC50
T2 construct: expressed in transfected cells; host or cells: HEK293
T2 sequence (P35222 1-781): T1 sequence (P35222 1-781)

SMILES | pIC50 [1] | pIC50 [2]
CC(=O)N1CCC[C@]12CC=CCCCC1(CCCC=CCCCOC(=O)N3CC[C@@](C(=O)N[C@@H](Cc4ccccc4)C(=O)N[C@@H](Cc4csc5ccccc45)C(=O)N[C@@H](CCC(N)=O)C(N)=O)(C3)NC(=O)[C@H](CC(C)C)NC(=O)[C@H](Cc3ccccc3)NC(=O)[C@H](C)NC(=O)[C@H](CCCCNC(C)C)NC(=O)[C@H](CCC(N)=O)NC(=O)[C@H](CC(=O)O)NC1=O)NC(=O)[C@H](CC1CCCCC1)NC(=O)[C@H](CC(N)=O)NC2=O (stereo partly drawn) [I-1648, Ac-PL3-Asn-Cha-B5-Asp-Gln-iPrLys-Ala-Phe-Leu-PyrS2-Phe-BztA-Gln-NH2] | 6.72 | < 4.70
CC(=O)N1CCC[C@]12CC=CCCCC1(CCCC=CCCCOC(=O)N3CC[C@@](C(=O)N[C@@H](Cc4ccccc4C(F)(F)F)C(=O)N[C@@H](Cc4csc5ccccc45)C(=O)N[C@@H](CCC(N)=O)C(N)=O)(C3)NC(=O)[C@H](Cc3ccccc3)NC(=O)[C@H](Cc3ccccc3)NC(=O)[C@H](C)NC(=O)[C@H](C)NC(=O)[C@H](Cc3ccccc3C(=O)O)NC(=O)[C@H](CC(=O)O)NC1=O)NC(=O)[C@H](CC(C)(C)C)NC(=O)[C@H](CC(=O)O)NC2=O (stereo partly drawn) [I-1655, Ac-PL3-Asp-Npg-B5-Asp-2COOHF-Ala-Ala-Phe-Phe-PyrS2-2F3MeF-BztA-Gln-NH2] | 7.32 | 4.90
CC(=O)N1CCC[C@]12CC=CCCCC1(CCCC=CCCCOC(=O)N3CC[C@@](C(=O)N[C@@H](Cc4ccccc4C(F)(F)F)C(=O)N[C@@H](Cc4csc5ccccc45)C(=O)N[C@@H](CCC(N)=O)C(N)=O)(C3)NC(=O)[C@H](CC(C)C)NC(=O)[C@H](Cc3ccccc3)NC(=O)[C@H](C)NC(=O)[C@H](C)NC(=O)[C@H](Cc3ccccc3C(=O)O)NC(=O)[C@H](CC(=O)O)NC1=O)NC(=O)[C@H](CC(C)(C)C)NC(=O)[C@H](CC(=O)O)NC2=O (stereo partly drawn) [I-1656, Ac-PL3-Asp-Npg-B5-Asp-2COOHF-Ala-Ala-Phe-Leu-PyrS2-2F3MeF-BztA-Gln-NH2] | 7.70 | 4.96
CC(=O)N1CCC[C@]12CC=CCCCC1(CCCC=CCCCOC(=O)N3CC[C@@](C(=O)N[C@@H](Cc4ccccc4Cl)C(=O)N[C@@H](Cc4csc5ccccc45)C(=O)N[C@@H](CCC(N)=O)C(N)=O)(C3)NC(=O)[C@H](Cc3ccccc3)NC(=O)[C@H](Cc3ccccc3)NC(=O)[C@H](C)NC(=O)[C@H](C)NC(=O)[C@H](Cc3ccccc3C(=O)O)NC(=O)[C@H](CC(=O)O)NC1=O)NC(=O)[C@H](CC(C)(C)C)NC(=O)[C@H](CC(=O)O)NC2=O (stereo partly drawn) [I-1657, Ac-PL3-Asp-Npg-B5-Asp-2COOHF-Ala-Ala-Phe-Phe-PyrS2-2C1F-BztA-Gln-NH2] | 7.44 | 4.96
CC(=O)N1CCC[C@]12CC=CCCCC1(CCCC=CCCCOC(=O)N3CC[C@@](C(=O)N[C@@H](Cc4ccccc4Cl)C(=O)N[C@@H](Cc4csc5ccccc45)C(=O)N[C@@H](CCC(N)=O)C(N)=O)(C3)NC(=O)[C@H](CC(C)C)NC(=O)[C@H](Cc3ccccc3)NC(=O)[C@H](C)NC(=O)[C@H](C)NC(=O)[C@H](Cc3ccccc3C(=O)O)NC(=O)[C@H](CC(=O)O)NC1=O)NC(=O)[C@H](CC(C)(C)C)NC(=O)[C@H](CC(=O)O)NC2=O (stereo partly drawn) [I-1658, Ac-PL3-Asp-Npg-B5-Asp-2COOHF-Ala-Ala-Phe-Leu-PyrS2-2C1F-BztA-Gln-NH2] | 7.72 | 5.01
CC(=O)N1CCC[C@]12CC=CCCCC1(CCCC=CCCCOC(=O)N3CC[C@@](C(=O)N[C@@H](Cc4ccccc4C(F)(F)F)C(=O)N[C@@H](Cc4csc5ccccc45)C(=O)N[C@@H](CO)C(N)=O)(C3)NC(=O)[C@H](Cc3ccccc3)NC(=O)[C@H](Cc3ccccc3)NC(=O)[C@H](C)NC(=O)[C@H](C)NC(=O)[C@H](Cc3ccccc3C(=O)O)NC(=O)[C@H](CC(=O)O)NC1=O)NC(=O)[C@H](CC(C)(C)C)NC(=O)[C@H](CC(=O)O)NC2=O (stereo partly drawn) [I-1659, Ac-PL3-Asp-Npg-B5-Asp-2COOHF-Ala-Ala-Phe-Phe-PyrS2-2F3MeF-BztA-Ser-NH2] | 6.97 | 4.94
CC(=O)N1CCC[C@]12CC=CCCCC1(CCCC=CCCCOC(=O)N3CC[C@@](C(=O)N[C@@H](Cc4ccccc4Cl)C(=O)N[C@@H](Cc4csc5ccccc45)C(=O)N[C@@H](CO)C(N)=O)(C3)NC(=O)[C@H](Cc3ccccc3)NC(=O)[C@H](Cc3ccccc3)NC(=O)[C@H](C)NC(=O)[C@H](C)NC(=O)[C@H](Cc3ccccc3C(=O)O)NC(=O)[C@H](CC(=O)O)NC1=O)NC(=O)[C@H](CC(C)(C)C)NC(=O)[C@H](CC(=O)O)NC2=O (stereo partly drawn) [I-1662, Ac-PL3-Asp-Npg-B5-Asp-2COOHF-Ala-Ala-Phe-Phe-PyrS2-2C1F-BztA-Ser-NH2] | 7.16 | 4.92
CC(=O)N1CCC[C@]12CC=CCCCC1(CCCC=CCCCOC(=O)N3CC[C@@](C(=O)N[C@@H](Cc4ccccc4Cl)C(=O)N[C@@H](Cc4csc5ccccc45)C(=O)N[C@@H](CO)C(N)=O)(C3)NC(=O)[C@H](CC(C)C)NC(=O)[C@H](Cc3ccccc3)NC(=O)[C@H](C)NC(=O)[C@H](C)NC(=O)[C@H](Cc3ccccc3C(=O)O)NC(=O)[C@H](CC(=O)O)NC1=O)NC(=O)[C@H](CC(C)(C)C)NC(=O)[C@H](CC(=O)O)NC2=O (stereo partly drawn) [I-1663, Ac-PL3-Asp-Npg-B5-Asp-2COOHF-Ala-Ala-Phe-Leu-PyrS2-2C1F-BztA-Ser-NH2] | 7.17 | 5.07

More lines, now with the values ahead:

pIC50 [1] | pIC50 [2] | SMILES
7.40 | 5.15 | CCNC(=O)[C@H](CCC(N)=O)NC(=O)[C@H](Cc1csc2ccccc12)NC(=O)[C@H](Cc1ccccc1Cl)NC(=O)[C@]12CCN(C1)C(=O)OCCCC=CCCCC1(CCCC=CC[C@]3(CCCN3C(C)=O)C(=O)N[C@@H](CC(=O)O)C(=O)N[C@@H](CC(C)(C)C)C(=O)N1)C(=O)N[C@@H](CC(=O)O)C(=O)N[C@@H](Cc1cccc(C(=O)O)c1)C(=O)N[C@@H](C)C(=O)N[C@@H](C)C(=O)N[C@@H](Cc1ccccc1)C(=O)N[C@@H](CC(C)C)C(=O)N2 (stereo partly drawn) [I-1672, Ac-PL3-Asp-Npg-B5-Asp-3COOHF-Ala-Ala-Phe-Leu-PyrS2-2C1F-BztA-Gln-NHEt]
6.83 | 4.74 | CC(=O)N1CCC[C@]12CC=CCCCC1(CCCC=CCCCOC(=O)N3CC[C@@](C(=O)N[C@@H](Cc4ccccc4Cl)C(=O)N[C@@H](Cc4csc5ccccc45)C(=O)N[C@@H](CCC(N)=O)C(=O)N[C@H](CO)Cc4ccccc4)(C3)NC(=O)[C@H](CC(C)C)NC(=O)[C@H](Cc3ccccc3)NC(=O)[C@H](C)NC(=O)[C@H](C)NC(=O)[C@H](Cc3cccc(C(=O)O)c3)NC(=O)[C@H](CC(=O)O)NC1=O)NC(=O)[C@H](CC(C)(C)C)NC(=O)[C@H](CC(=O)O)NC2=O (stereo partly drawn) [I-1674, Ac-PL3-Asp-Npg-B5-Asp-3COOHF-Ala-Ala-Phe-Leu-PyrS2-2C1F-BztA-Gln-]
7.73 | 5.01 | CC(=O)N1CCC[C@]12CC=CCCCC1(CCCC=CCCCOC(=O)N3CC[C@@](C(=O)N[C@@H](Cc4ccccc4Cl)C(=O)N[C@@H](Cc4csc5ccccc45)C(=O)N[C@@H](CCC(N)=O)C(=O)N4CCC[C@H]4CO)(C3)NC(=O)[C@H](CC(C)C)NC(=O)[C@H](Cc3ccccc3)NC(=O)[C@H](C)NC(=O)[C@H](C)NC(=O)[C@H](Cc3cccc(C(=O)O)c3)NC(=O)[C@H](CC(=O)O)NC1=O)NC(=O)[C@H](CC(C)(C)C)NC(=O)[C@H](CC(=O)O)NC2=O (stereo partly drawn) [I-1675, Ac-PL3-Asp-Npg-B5-Asp-3COOHF-Ala-Ala-Phe-Leu-PyrS2-2C1F-BztA-Gln-Proo1]
7.49 | 5.01 | CCNC(=O)[C@H](CCC(N)=O)NC(=O)[C@H](Cc1csc2ccccc12)NC(=O)[C@H](Cc1ccsc1)NC(=O)[C@]12CCN(C1)C(=O)OCCCC=CCCCC1(CCCC=CC[C@]3(CCCN3C(C)=O)C(=O)N[C@@H](CC(=O)O)C(=O)N[C@@H](CC(C)(C)C)C(=O)N1)C(=O)N[C@@H](CC(=O)O)C(=O)N[C@@H](CN(CC(=O)O)CC(F)(F)F)C(=O)N[C@@H](C)C(=O)N[C@@H](C)C(=O)N[C@@H](Cc1ccccc1)C(=O)N[C@@H](CC(C)C)C(=O)N2 (stereo partly drawn) [I-1678, Ac-PL3-Asp-Npg-B5-Asp-TfeGA-Ala-Ala-Phe-Leu-PyrS2-3Thi-BztA-Gln-NHEt]
7.09 | 4.90 | CC(=O)N1CCC[C@]12CC=CCCCC1(CCCC=CCCCOC(=O)N3CC[C@@](C(=O)N[C@@H](Cc4ccsc4)C(=O)N[C@@H](Cc4csc5ccccc45)C(=O)N[C@@H](CCC(N)=O)C(=O)N[C@H](CO)Cc4ccccc4)(C3)NC(=O)[C@H](CC(C)C)NC(=O)[C@H](Cc3ccccc3)NC(=O)[C@H](C)NC(=O)[C@H](C)NC(=O)[C@H](CN(CC(=O)O)CC(F)(F)F)NC(=O)[C@H](CC(=O)O)NC1=O)NC(=O)[C@H](CC(C)(C)C)NC(=O)[C@H](CC(=O)O)NC2=O (stereo partly drawn) [I-1680, Ac-PL3-Asp-Npg-B5-Asp-TfeGA-Ala-Ala-Phe-Leu-PyrS2-3Thi-BztA-Gln-Pheo1]

— patent publication US20240116985A1, “STAPLED PEPTIDES AND METHODS THEREOF” (priority 2020, published 2024)
